Experimental data as given in patent publication US20230257354A1, “NOVEL HETEROCYCLIC COMPOUNDS” (Hoffmann-La Roche Inc., priority 2020, published 2023).

Tested on: Acinetobacter baumannii ATCC17978
Test: Antimicrobial susceptibility testing, 90% growth inhibitory concentration (IC90) determination, ATCC17978
Type: cell-based
Details: Iso-Sensitest broth, OD 600 nm over 16 h, 35±2° C., read-out: ATCC 17978 IC90
Method in brief: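 Serial twofold dilutions (e.g. 50 to 0.097 μM final) in Iso-Sensitest broth, inoculum ~5×10^(5) CFU/ml, incubated 35±2 °C for 16 h. OD600 read every 20 min; growth inhibition calculated during logarithmic growth to derive the concentration inhibiting 90% of growth, in μM.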

| SMILES | IC90 |
| --- | --- |
| COc1ccc(-c2cnc(C(=O)Nc3ccc(C(=O)NCCNC(=O)N[C@H]4CNC[C@@H]4O)c(C)c3)n2C)c(F)c1F [Example B29, 5-(2,3-difluoro-4-methoxy-phenyl)-N-[4-[2-[[(3S,4S)-4-hydroxypyrrolidin-3-yl]carbamoylamino]ethylcarbamoyl]-3-methyl-phenyl]-1-methyl-imidazole-2-carboxamide;formic acid] | 610 nM |
| Cc1cc(NC(=O)c2ncc(-c3ccc(OCC#N)c(F)c3F)n2C)ccc1C(=O)NCCNC(=O)N[C@@H]1CNC[C@H]1O [Example B30, 5-[4-(cyanomethoxy)-2,3-difluoro-phenyl]-N-[4-[2-[[(3R,4R)-4-hydroxypyrrolidin-3-yl]carbamoylamino]ethylcarbamoyl]-3-methyl-phenyl]-1-methyl-imidazole-2-carboxamide;formic acid] | 650 nM |
| Cc1cc(NC(=O)c2ncc(-c3ccc(OCC#N)c(F)c3F)n2C)ccc1C(=O)NCCNC(=O)N[C@H]1CNC[C@@H]1O [Example B31, 5-[4-(cyanomethoxy)-2,3-difluoro-phenyl]-N-[4-[2-[[(3S,4S)-4-hydroxypyrrolidin-3-yl]carbamoylamino]ethylcarbamoyl]-3-methyl-phenyl]-1-methyl-imidazole-2-carboxamide;formic acid] | 740 nM |
| Cn1c(-c2ccc(OCC#N)c(F)c2F)cnc1C(=O)Nc1ccc(C(=O)NCCNC(=O)[C@@H]2CCNC[C@@H]2O)c(Cl)c1 [Example B32, (3R,4R)-N-[2-[[2-chloro-4-[[5-[4-(cyanomethoxy)-2,3-difluoro-phenyl]-1-methyl-imidazole-2-carbonyl]amino]benzoyl]amino]ethyl]-3-hydroxy-piperidine-4-carboxamide;formic acid] | 1200 nM |
| Cn1c(-c2ccc(OCC#N)c(F)c2F)cnc1C(=O)Nc1ccc(C(=O)NCCNC(=O)[C@H]2CCNC[C@H]2O)c(Cl)c1 [Example B33, (3S,4S)-N-[2-[[2-chloro-4-[[5-[4-(cyanomethoxy)-2,3-difluoro-phenyl]-1-methyl-imidazole-2-carbonyl]amino]benzoyl]amino]ethyl]-3-hydroxy-piperidine-4-carboxamide;formic acid] | 1100 nM |
| Cn1c(-c2ccc(OCC#N)c(F)c2F)cnc1C(=O)Nc1ccc(C(=O)NCCNC(=O)[C@@H]2CCNC[C@H]2O)c(Cl)c1 [Example B34, (3S,4R)-N-[2-[[2-chloro-4-[[5-[4-(cyanomethoxy)-2,3-difluoro-phenyl]-1-methyl-imidazole-2-carbonyl]amino]benzoyl]amino]ethyl]-3-hydroxy-piperidine-4-carboxamide;formic acid] | 1700 nM |
| Cn1c(-c2ccc(OCC#N)c(F)c2F)cnc1C(=O)Nc1ccc(C(=O)NCCNC(=O)[C@H]2CCNC[C@@H]2O)c(Cl)c1 [Example B35, (3R,4S)-N-[2-[[2-chloro-4-[[5-[4-(cyanomethoxy)-2,3-difluoro-phenyl]-1-methyl-imidazole-2-carbonyl]amino]benzoyl]amino]ethyl]-3-hydroxy-piperidine-4-carboxamide;formic acid] | 1300 nM |
| Cn1c(-c2ccc(OCC#N)c(F)c2F)cnc1C(=O)Nc1ccc(C(=O)NCCNC(=O)[C@H]2C[C@@](C)(O)CN2)c(Cl)c1 [Example B36, N-[3-chloro-4-[2-[[(2R,4R)-4-hydroxy-4-methyl-pyrrolidine-2-carbonyl]amino]ethylcarbamoyl]phenyl]-5-[4-(cyanomethoxy)-2,3-difluoro-phenyl]-1-methyl-imidazole-2-carboxamide;formic acid] | 1100 nM |
| CC[C@]1(O)CN[C@@H](C(=O)NCCNC(=O)c2ccc(NC(=O)c3ncc(-c4ccc(OCC#N)c(F)c4F)n3C)cc2Cl)C1 [Example B37, N-[3-chloro-4-[2-[[(2R,4R)-4-ethyl-4-hydroxy-pyrrolidine-2-carbonyl]amino]ethylcarbamoyl]phenyl]-5-[4-(cyanomethoxy)-2,3-difluoro-phenyl]-1-methyl-imidazole-2-carboxamide;formic acid] | 850 nM |
| COc1ccc(-c2cnc(C(=O)Nc3ccc(C(=O)N[C@H]4C[C@@H](NC(=O)C5CCNCC5)C4)c(Cl)c3)n2C)c(F)c1F [Example B39, N-[3-[[2-chloro-4-[[5-(2,3-difluoro-4-methoxy-phenyl)-1-methyl-imidazole-2-carbonyl]amino]benzoyl]amino]cyclobutyl]piperidine-4-carboxamide;formic acid] | 57 nM |
| COc1ccc(-c2cnc(C(=O)Nc3ccc(C(=O)N[C@H]4C[C@@H](NC(=O)C5(O)CCNCC5)C4)c(Cl)c3)n2C)c(F)c1F [Example B40, N-[3-[[2-chloro-4-[[5-(2,3-difluoro-4-methoxy-phenyl)-1-methyl-imidazole-2-carbonyl]amino]benzoyl]amino]cyclobutyl]-4-hydroxy-piperidine-4-carboxamide;formic acid] | 120 nM |
| COc1ccc(-c2cnc(C(=O)Nc3ccc(C(=O)N[C@H]4C[C@@H](NC(=O)[C@@H]5CCNC[C@@H]5O)C4)c(Cl)c3)n2C)c(F)c1F [Example B41, (3R,4R)-N-[3-[[2-chloro-4-[[5-(2,3-difluoro-4-methoxy-phenyl)-1-methyl-imidazole-2-carbonyl]amino]benzoyl]amino]cyclobutyl]-3-hydroxy-piperidine-4-carboxamide;formic acid] | 130 nM |
| COc1ccc(-c2cnc(C(=O)Nc3ccc(C(=O)N[C@H]4C[C@@H](NC(=O)[C@H]5CCNC[C@H]5O)C4)c(Cl)c3)n2C)c(F)c1F [Example B42, (3S,4S)-N-[3-[[2-chloro-4-[[5-(2,3-difluoro-4-methoxy-phenyl)-1-methyl-imidazole-2-carbonyl]amino]benzoyl]amino]cyclobutyl]-3-hydroxy-piperidine-4-carboxamide;formic acid] | 73 nM |
| Cn1c(-c2ccc(OC(F)F)c(F)c2F)cnc1C(=O)Nc1ccc(C(=O)NCCC2CN(CC3CNC3)C2)c(Cl)c1 [Example C1, N-[4-[2-[1-(Azetidin-3-ylmethyl)azetidin-3-yl]ethylcarbamoyl]-3-chloro-phenyl]-5-[4-(difluoromethoxy)-2,3-difluoro-phenyl]-1-methyl-imidazole-2-carboxamide;2,2,2-trifluoroacetic acid] | 830 nM |
| CCc1cc(NC(=O)c2ncc(-c3ccc(OC(F)F)c(F)c3F)n2C)ccc1C(=O)NCCCNC(=O)C1CCN(CC2CCNC2)CC1 (centres unmarked) [Example C2, N-[3-[[4-[[5-[4-(difluoromethoxy)-2,3-difluoro-phenyl]-1-methyl-imidazole-2-carbonyl]amino]-2-ethyl-benzoyl]amino]propyl]-1-(pyrrolidin-3-ylmethyl)piperidine-4-carboxamide;formic acid] | 370 nM |
| CCc1cc(NC(=O)c2ncc(-c3ccc(OC(F)F)c(F)c3F)n2C)ccc1C(=O)NCCCNC(=O)C1CCN(CC2CNC2)CC1 [Example C3, 1-(azetidin-3-ylmethyl)-N-[3-[[4-[[5-[4-(difluoromethoxy)-2,3-difluoro-phenyl]-1-methyl-imidazole-2-carbonyl]amino]-2-ethyl-benzoyl]amino]propyl]piperidine-4-carboxamide;formic acid] | 450 nM |
| COc1ccc(-c2cnc(C(=O)Nc3ccc(C(=O)NCC4CCN(CC5CNC5)CC4)c(Cl)c3)n2C)c(F)c1F [Example C4, N-[4-[[1-(azetidin-3-ylmethyl)-4-piperidyl]methylcarbamoyl]-3-chloro-phenyl]-5-(2,3-difluoro-4-methoxy-phenyl)-1-methyl-imidazole-2-carboxamide;2,2,2-trifluoroacetic acid] | 750 nM |
| CNC(=O)c1ccc(NC(=O)c2ncc(-c3ccc(OC)cc3)n2C)cc1C [Example D1, 5-(4-Methoxyphenyl)-1-methyl-N-[3-methyl-4-(methylcarbamoyl)phenyl]imidazole-2-carboxamide] | 3200 nM |

Tested on: Acinetobacter baumannii ATCC17961
Test: Antimicrobial susceptibility testing, 90% growth inhibitory concentration (IC90) determination, ATCC17961
Type: cell-based
Details: Iso-Sensitest broth, OD 600 nm over 16 h, 35±2° C., read-out: ATCC 17961 IC90
Procedure: Antimicrobial Susceptibility Testing: 90% Growth Inhibitory Concentration (IC90) Determination The in vitro antimicrobial activity of the compounds was determined according to the following procedure: The assay used a 10-points Iso-Sensitest broth medium to measure quantitatively the in vitro activity of the compounds against Acinetobacter baumannii ATCC17978 or ATCC17961. Stock compounds in DMSO were serially twofold diluted (e.g. range from 50 to 0.097 μM final concentration) in 384 wells microtiter plates and inoculated with 49 μl the bacterial suspension in Iso-Sensitest medium to have a final cell concentration of ˜5×10^(5) CFU/ml in a final volume/well of 50 ul/well. Microtiter plates were incubated at 35±2° C. Bacterial cell growth was determined with the measurement of optical density at X=600 nm each 20 minutes over a time course of 16 h. Growth inhibition was calculated during the logarithmic growth of the bacterial cells with determination of the concentration inhibiting 50% (IC50) and 90% (IC90) of the growth. Table 2 provides the 90% growth inhibitory concentrations (IC90) in micromoles per liter of the compounds of present invention obtained against the strain Acinetobacter baumannii ATCC17961.

| SMILES | IC90 |
| --- | --- |
| COc1ccc(-c2cnc(C(=O)Nc3ccc(C(=O)N[C@H]4[C@@H]5CN(C(=O)[C@@H]6C[C@@H](O)CN6)C[C@@H]54)c(Cl)c3)n2C)c(F)c1F [Example B43, N-[3-chloro-4-[[(exo)-3-[(2S,4R)-4-hydroxyprolyl]-3-azabicyclo[3.1.0]hexan-6-yl]carbamoyl]phenyl]-5-(2,3-difluoro-4-methoxy-phenyl)-1-methyl-imidazole-2-carboxamide; 1:1 hydrogen chloride] | 139 nM |
| COc1ccc(-c2cnc(C(=O)Nc3ccc(C(=O)N[C@H]4[C@@H]5CN(C(=O)N[C@@H]6CNC[C@H]6O)C[C@@H]54)c(Cl)c3)n2C)c(F)c1F [Example B44, (exo)-6-[[2-chloro-4-[[5-(2,3-difluoro-4-methoxy-phenyl)-1-methyl-imidazole-2-carbonyl]amino]benzoyl]amino]-N-[(trans)-4-hydroxypyrrolidin-3-yl]-3-azabicyclo[3.1.0]hexane-3-carboxamide; 1:1 hydrogen chloride] | 155 nM |
